Biological target: T1, Human IBAT (Homo sapiens, UniProt Q12908)
T1 construct: expressed in transfected cells; cultured under Puromycin selection
T1 sequence (Q12908 1-348): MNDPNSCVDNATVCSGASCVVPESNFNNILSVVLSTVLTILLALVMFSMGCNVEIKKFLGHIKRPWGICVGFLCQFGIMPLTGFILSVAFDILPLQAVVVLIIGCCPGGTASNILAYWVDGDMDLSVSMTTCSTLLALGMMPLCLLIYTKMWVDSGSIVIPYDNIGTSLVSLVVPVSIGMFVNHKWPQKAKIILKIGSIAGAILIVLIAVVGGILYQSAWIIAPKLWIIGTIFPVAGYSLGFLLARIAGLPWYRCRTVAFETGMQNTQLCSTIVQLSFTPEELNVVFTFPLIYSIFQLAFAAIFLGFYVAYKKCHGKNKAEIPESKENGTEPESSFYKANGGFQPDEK
Test: IBAT (h/m) assay, human IBAT-overexpressing cells, 3H-taurocholic acid uptake
Assay type: cell-based
Conditions: read-out: hIBAT IC50
Procedure: IBAT (h/m) Assay Protocol
10,000 cells (Human or Mouse IBAT-overexpressing cells) were seeded in 96-wells plate (Corning CLS3809) in 200 μL MEM-alpha medium (Gibco 12571-063) supplemented with 10% FBS (Gibco 10438026) containing Puromycin (Gibco A1113803) (10 μg/mL) and incubated at 37° C. in 5% CO2 for 48 hours. After incubation, media was decanted from the wells and cells were washed two times with 300 μL of basal MEM-alpha medium (FBS-free). After decanting basal MEM-alpha medium each time, plates were tapped against paper towel to ensure maximum removal of residual media. Test inhibitor dilutions (highest test concentration being 10 μM, 3-fold serial dilution, 10 points) prepared in DMSO (Sigma D2650) were added in incubation mix (maintaining 0.2% final DMSO concentration) containing 0.25 μM 3H-taurocholic acid (ARC ART-1368) and 5 μM of cold taurocholic acid (Sigma T4009). 50 μL of incubation mix containing test inhibitors was then added to the wells (in duplicate) and the plates were incubated for 20 minutes in a CO2 incubator at 37° C. After incubation, the reaction was stopped by keeping the plates on ice water mix for 2-3 minutes and then the incubation mix was aspirated completely from the wells. The wells were washed two times with 250 μL of chilled unlabeled 1 mM taurocholic acid dissolved in HEPES (Gibco 15630080)-buffered (10 mM) HBSS (Gibco 14175079) (pH 7.4). The plates were tapped against a paper towel after every wash to ensure maximum removal of blocking buffer. 100 μL of MicroScint-20 (PerkinElmer 6013621) was added to the wells and kept overnight at room temperature before reading the plates in TopCount NXT™ Microplate Scintillation and Luminescence Counter from PerkinElmer under 3H Test protocol (set at 120 seconds reading time per well).
Preparation of Test Compound Dilutions
All test compounds were provided in powder form at room temperature. 10 mM DMSO stocks of the test compounds were prepared, aliquoted and stored at −20° C. From the 10 mM DMSO stock of the compounds, a 3-fold serial dilution in DMSO was prepared to get a total of 10 dilutions of the test compounds. 0.5 μL of this dilution in DMSO was added to 250 μL of FBS-free basal media containing 3H-taurocholic acid and cold taurocholic acid to prepare the incubation mixture.

IC50: 1 nM
SMILES: CCCCC1(C)CN(c2ccc(F)cc2)c2cc(SC)c(OCC(O)C(=O)O)cc2S(=O)(=O)C1 (single isomer, unassigned) [1, diastereomer 1]

— patent publication US11377429B2, “Benzothia(di)azepine compounds and their use as bile acid modulators” (Albireo AB, priority 2020, dated 2022)
